{"source": "patent US8541442B2", "about": "“Indole derivatives as anticancer agents” (Janssen Pharmaceutica N.V., priority 2009, dated 2013)", "key": {"[1]": {"system": "Male NMRI mice", "test": "Ro-4-1284 antagonism in mice", "format": "in vivo", "procedure": "The test is a modification of a procedure described by Colpaert et al. (1975).^3 Male NMRI mice (22±3 g) were housed in macrolon observation cages (L×W×H: 11×12×17 cm; n=3 per cage). At the start of the experiments immediately before test compound administration, the initial body temperature of the mice was measured with a precision of 0.1° C. by inserting the thermo-sensitive probe (1.0 mm diameter) of an electric thermometer (Comark) to a constant depth of 3 cm into the esophagus until a stable reading was obtained. The right eye pupil diameter was measured with a graduated microscope and expressed in 1/24 mm units. Fifteen min after test compound administration, the mice were challenged with Ro-4-1284 (10 mg/kg, s.c.). Ro-4-1284 is a reserpine-like vesicular monoamine transport (VMAT-2) inhibitor, which rapidly depletes secretory vesicles.^3,4 Fifteen, 30 and 60 min after challenge, the mice were scored for palpebral opening (0, 1, 2, 3, 4, 5) and locomotor activity (−1, 0, 1, 2, 3). At the 60-min interval, immediately after the scoring of overt behavior, the right eye pupil diameter and the esophageal temperature were measured again. Abnormal phenomena such as intensive sniffing, chewing, rearing, hyperemia, piloerection, salivation, tremors, convulsions and death were noted (the latter phenomena were also noted when occurring before Ro-4-1284 administration). Criteria for drug-induced effects: reversal of ptosis: palpebral opening score >1 at 15, 30 or 60 min (2.7, 0.5 and 0% false positive controls, respectively; n>350); induction of prostration: score −1 for locomotion at 15, 30 or 60 min (never observed in controls); reversal of hypomotility: score >0 for locomotion at 15, 30 and 60 min (2.2, 0.8 and 0% false positive controls, respectively); reversal of miosis: pupil diameter >5 units at 60 min (0.8% false positives); potentiation of hypothermia: temperature decrease (over the 1-h time interval)>9.0° C. (1.4% false positives); reversal of hypothermia: temperature decrease <3.0° C. (1.8% false positives).\nAccording to the standard procedure, R0-4-1284 is injected 15 min following subcutaneous or oral administration and observations start 15 min later. Doses are initially given to 3 animals. When at least 2 out of the 3 animals show activity for at least one of the observations, the compound is considered active."}, "[2]": {"system": "human prostate cancer cell line DU145", "test": "Alamar Blue cell proliferation assay, DU145", "format": "cell-based", "conditions": "for IC50: Homo sapiens, DU-145, DU145 cells, read-out: DU145 cell proliferation inhibition pIC50 (converted); for DU145 cell proliferation inhibition pIC50: DU145 cells", "procedure": "For experiments in 384 wells plates the cells were seeded at a density of 5×10^3 cells/ml in Falcon 384-well culture plates (Life Technologies, Merelbeke, Belgium), black with clear bottom, in 45 μl culture medium. Cells were allowed to adhere to plastic for 24 hr. The tested compound was pre-diluted (1/50 in culture medium) and 5 μl pre-diluted compound was added to the wells. Following 4-day incubation, 10 μl of the Alamar Blue solution was added to each well and the cells were further incubated for 5 hrs (A2780) at 37° C. The fluorescence intensity was measured for each well with a Fluorescence plate reader (Fluorskan, Labsystems, 540 nm excitation and 590 nm emission)\nThe antiproliferative activity was calculated as percentage of remaining viable cells in treated versus control (untreated cells) conditions. Within an experiment, the result for each experimental condition is the mean of 3 replicate wells. When appropriate, the experiments were repeated to establish full concentration-response curves. When appropriate, IC50-values (concentration of the drug, needed to reduce cell growth to 50% of the control) were computed using probit analysis for graded data (Finney, D. J., Probit Analyses, 2nd Ed. Chapter 10, Graded Responses, Cambridge University Press, Cambridge 1962). Herein the effects of test compounds are expressed as pIC50 (the negative log value of the IC50-value (M)) (see Table 5A).\nCompounds were also tested according to the above protocol but using other cell lines: colorectal cancer cell line HCT116, non-small cell lung cancer cell line H1299, human prostate cancer cell line DU145."}, "[3]": {"conditions": "80 mg/kg oral administration, 3 animals"}}}
{"smiles": "COC1CCc2c(Nc3ccc(NCCc4c[nH]c5c(C(C)(C)O)cccc45)cc3)ccnc21", "note": "(single isomer, unassigned) [Compound 25]", "values": [{"measurement": "activity on reversal of hypomotility", "setting": "[1]; [3]", "value": "did not show activity"}, {"measurement": "activity on reversal of miosis", "setting": "[1]; [3]", "value": "did not show activity"}, {"measurement": "activity on reversal of ptosis", "setting": "[1]; [3]", "value": "did not show activity"}]}
{"smiles": "Cc1cc(Nc2ccnc3c2CCC3O)ccc1NCCc1c[nH]c2c(CCC(C)O)cccc12", "note": "(stereo not drawn) [Compound 9]", "values": [{"measurement": "IC50", "setting": "[2]", "value": 5500, "unit": "nM"}]}
{"smiles": "Cc1cc(Nc2ccnc(CO)c2)ccc1NCCc1c[nH]c2c(C(C)(C)O)cccc12", "note": "[Compound 19]", "values": [{"measurement": "DU145 cell proliferation inhibition pIC50", "setting": "[2]", "value": 5.74}]}
{"smiles": "Cc1cc(Nc2ccnc3c2CCC3(C)O)ccc1NCCc1c[nH]c2c(C(C)(C)O)cccc12", "note": "(single isomer, unassigned) [Compound 27]", "values": [{"measurement": "IC50", "setting": "[2]", "value": 1000, "unit": "nM"}, {"measurement": "activity on reversal of hypomotility", "setting": "[1]; [3]", "value": "did not show activity"}, {"measurement": "activity on reversal of miosis", "setting": "[1]; [3]", "value": "did not show activity"}, {"measurement": "activity on reversal of ptosis", "setting": "[1]; [3]", "value": "did not show activity"}]}
{"smiles": "COC1CCc2c(Nc3ccc(NCCc4c[nH]c5c(C(C)O)cccc45)c(C)c3)ccnc21", "note": "(stereo not drawn) [Compound 16]", "values": [{"measurement": "DU145 cell proliferation inhibition pIC50", "setting": "[2]", "value": 5.98}]}
{"smiles": "Cc1cc(Nc2ccnc3c2CCC3O)ccc1NCCc1c[nH]c2c(C(C)(C)O)cccc12", "note": "(stereo not drawn) [Compound 20]", "values": [{"measurement": "DU145 cell proliferation inhibition pIC50", "setting": "[2]", "value": 5.73}, {"measurement": "activity on reversal of hypomotility", "setting": "[1]; [3]", "value": "did not show activity"}, {"measurement": "activity on reversal of miosis", "setting": "[1]; [3]", "value": "did not show activity"}, {"measurement": "activity on reversal of ptosis", "setting": "[1]; [3]", "value": "did not show activity"}]}
{"smiles": "CC(C)(O)c1cccc2c(CCNc3ccc(Nc4ccnc5c4CCC5(C)O)cc3)c[nH]c12", "note": "(single isomer, unassigned) [Compound 30]", "values": [{"measurement": "DU145 cell proliferation inhibition pIC50", "setting": "[2]", "value": 6.14}, {"measurement": "activity on reversal of hypomotility", "setting": "[1]; [3]", "value": "did not show activity"}, {"measurement": "activity on reversal of miosis", "setting": "[1]; [3]", "value": "did not show activity"}, {"measurement": "activity on reversal of ptosis", "setting": "[1]; [3]", "value": "did not show activity"}]}
{"smiles": "Cc1cc(Nc2ccnc(CO)c2)ccc1NCCc1c[nH]c2c(C(C)O)cccc12", "note": "(stereo not drawn) [Compound 5]", "values": [{"measurement": "IC50", "setting": "[2]", "value": 2750, "unit": "nM"}]}
{"smiles": "Cc1cc(Nc2ccnc3c2CCC3O)ccc1NCCc1c[nH]c2c(C(C)(C)O)cccc12", "note": "(stereo not drawn) [Compound 18]", "values": [{"measurement": "DU145 cell proliferation inhibition pIC50", "setting": "[2]", "value": 6.40}, {"measurement": "activity on reversal of hypomotility", "setting": "[1]; [3]", "value": "did not show activity"}, {"measurement": "activity on reversal of miosis", "setting": "[1]; [3]", "value": "did not show activity"}, {"measurement": "activity on reversal of ptosis", "setting": "[1]; [3]", "value": "did not show activity"}]}
{"smiles": "Cc1cc(Nc2ccnc3c2CCC3O)ccc1NCCc1c[nH]c2c(CCO)cccc12", "note": "(single isomer, unassigned) [Compound 23]", "values": [{"measurement": "DU145 cell proliferation inhibition pIC50", "setting": "[2]", "value": 5}]}
{"smiles": "COC1CCc2c(Nc3ccc(NCCc4c[nH]c5c(C(C)(C)O)cccc45)c(C)c3)ccnc21", "note": "(single isomer, unassigned) [Compound 29]", "values": [{"measurement": "DU145 cell proliferation inhibition pIC50", "setting": "[2]", "value": 6.58}, {"measurement": "activity on reversal of hypomotility", "setting": "[1]; [3]", "value": "did not show activity"}, {"measurement": "activity on reversal of miosis", "setting": "[1]; [3]", "value": "did not show activity"}, {"measurement": "activity on reversal of ptosis", "setting": "[1]; [3]", "value": "did not show activity"}]}
{"smiles": "CC(C)(O)c1cccc2c(CCNc3ccc(Nc4ccnc5c4CCC5(C)O)cc3)c[nH]c12", "note": "(single isomer, unassigned) [Compound 31]", "values": [{"measurement": "DU145 cell proliferation inhibition pIC50", "setting": "[2]", "value": 6.04}, {"measurement": "activity on reversal of hypomotility", "setting": "[1]; [3]", "value": "did not show activity"}, {"measurement": "activity on reversal of miosis", "setting": "[1]; [3]", "value": "did not show activity"}, {"measurement": "activity on reversal of ptosis", "setting": "[1]; [3]", "value": "did not show activity"}]}
{"smiles": "COc1cc(Nc2ccnc3c2CCC3O)ccc1NCCc1c[nH]c2c(C(C)(C)O)cccc12", "note": "(stereo not drawn) [Compound 11]", "values": [{"measurement": "DU145 cell proliferation inhibition pIC50", "setting": "[2]", "value": 6.21}]}
{"smiles": "Cc1cc(Nc2ccnc3c2CCC3(C)O)ccc1NCCc1c[nH]c2c(C(C)(C)O)cccc12", "note": "(single isomer, unassigned) [Compound 26]", "values": [{"measurement": "DU145 cell proliferation inhibition pIC50", "setting": "[2]", "value": 6.18}, {"measurement": "activity on reversal of hypomotility", "setting": "[1]; [3]", "value": "did not show activity"}, {"measurement": "activity on reversal of miosis", "setting": "[1]; [3]", "value": "did not show activity"}, {"measurement": "activity on reversal of ptosis", "setting": "[1]; [3]", "value": "did not show activity"}]}
{"smiles": "Cc1cc(Nc2ccnc3c2CCC3(C)O)ccc1NCCc1c[nH]c2c(C(C)(C)O)cccc12", "note": "(stereo not drawn) [Compound 1]", "values": [{"measurement": "IC50", "setting": "[2]", "value": 1200, "unit": "nM"}, {"measurement": "activity on reversal of hypomotility", "setting": "[1]; [3]", "value": "did not show activity"}, {"measurement": "activity on reversal of miosis", "setting": "[1]; [3]", "value": "did not show activity"}, {"measurement": "activity on reversal of ptosis", "setting": "[1]; [3]", "value": "did not show activity"}]}
{"smiles": "COC1CCc2c(Nc3ccc(NCCc4c[nH]c5c(C(C)(C)O)cccc45)cc3)ccnc21", "note": "(single isomer, unassigned) [Compound 24]", "values": [{"measurement": "IC50", "setting": "[2]", "value": 295, "unit": "nM"}, {"measurement": "activity on reversal of hypomotility", "setting": "[1]; [3]", "value": "did not show activity"}, {"measurement": "activity on reversal of miosis", "setting": "[1]; [3]", "value": "did not show activity"}, {"measurement": "activity on reversal of ptosis", "setting": "[1]; [3]", "value": "did not show activity"}]}
{"smiles": "C=C(C)c1cccc2c(CCNc3ccc(Nc4ccnc5c4CCC5OC)cc3)c[nH]c12", "note": "(stereo not drawn) [Compound 7]", "values": [{"measurement": "IC50", "setting": "[2]", "value": 251, "unit": "nM"}, {"measurement": "activity on reversal of hypomotility", "setting": "[1]; [3]", "value": "did not show activity"}, {"measurement": "activity on reversal of miosis", "setting": "[1]; [3]", "value": "did not show activity"}, {"measurement": "activity on reversal of ptosis", "setting": "[1]; [3]", "value": "did not show activity"}]}
{"smiles": "Cc1cc(Nc2ccncc2)ccc1NCCc1c[nH]c2c(C(C)(C)O)cccc12", "note": "[Compound 2]", "values": [{"measurement": "IC50", "setting": "[2]", "value": 692, "unit": "nM"}]}
{"smiles": "Cc1cc(Nc2ccncc2)ccc1NCCc1c[nH]c2c(C(O)C(C)C)cccc12", "note": "(stereo not drawn) [Compound 22]", "values": [{"measurement": "DU145 cell proliferation inhibition pIC50", "setting": "[2]", "value": 5.07}]}
{"smiles": "Cc1cc(Nc2ccnc3c2CCC3=O)ccc1NCCc1c[nH]c2c(C(C)O)cccc12", "note": "(stereo not drawn) [Compound 4]", "values": [{"measurement": "IC50", "setting": "[2]", "value": 5130, "unit": "nM"}, {"measurement": "activity on reversal of hypomotility", "setting": "[1]; 40 mg/kg", "value": "did not show activity"}, {"measurement": "activity on reversal of miosis", "setting": "[1]; 40 mg/kg", "value": "did not show activity"}, {"measurement": "activity on reversal of ptosis", "setting": "[1]; 40 mg/kg", "value": "did not show activity"}]}
{"smiles": "COC1CCc2c(Nc3ccc(NCCc4c[nH]c5c(C(C)(C)O)cccc45)c(C)c3)ccnc21", "note": "(single isomer, unassigned) [Compound 28]", "values": [{"measurement": "DU145 cell proliferation inhibition pIC50", "setting": "[2]", "value": 6.52}, {"measurement": "activity on reversal of hypomotility", "setting": "[1]; [3]", "value": "did not show activity"}, {"measurement": "activity on reversal of miosis", "setting": "[1]; [3]", "value": "did not show activity"}, {"measurement": "activity on reversal of ptosis", "setting": "[1]; [3]", "value": "did not show activity"}]}
{"smiles": "Cc1cc(Nc2ccnc3c2CCC3(C)O)ccc1NCCc1c[nH]c2c(C(C)O)cccc12", "note": "(stereo not drawn) [Compound 10]", "values": [{"measurement": "DU145 cell proliferation inhibition pIC50", "setting": "[2]", "value": 5.65}]}
